In ChEMBL document CHEMBL1125639, “Synthesis and resolution of (+-)-7-chloro-8-hydroxy-1-(3'-iodophenyl)-3-methyl-2,3,4,5-tetrahydro- 1H-3- benzazepine (TISCH): a high affinity and selective iodinated ligand for CNS D1 dopamine receptor” (J Med Chem, 1991) one finds Ki data, which are given here for five compounds.

The species named for the test is Rattus norvegicus. It counts as functional, Striatum, Membrane.

Description: Inhibition constant of compound on R-(+)-125[I]-8 radioligand binding to rat striatal membranes

In turn, `CN1CCc2cc(Cl)c(O)cc2C(c2cccc(I)c2)C1` (racemic) yielded a Ki of 1.07 nM. This lies in the single-digit nanomolar range.

Regarding `NCCc1ccc(O)c(O)c1` [DOPAMINE], the inhibition constant Ki was above 3000 nM.

For the compound `C=CCN1CC[C@]23c4c5ccc(O)c4O[C@H]2C(=O)CC[C@@]3(O)[C@H]1C5` [NALOXONE], the Ki was above 6000 nM.

Compound `CN1CCc2cc(Cl)c(O)cc2[C@@H](c2ccccc2)C1` [SCH-23390] registered a Ki of 0.28 nM.

The compound `NCCc1c[nH]c2ccc(O)cc12` [SEROTONIN] had an inhibition constant (Ki) above 5000 nM.
